The source of these data is patent publication US9434763B2, “Derivatives of pyridinone as inhibitors for tissue transglutaminase” (ZEDIRA GMBH, priority 2012, dated 2016).

SMILES strings stand for the structures.

This assay addresses T1, His tagged recombinant human tissue transglutaminase (His6-rh-TG2) (Homo sapiens, UniProt P21980).
T1 construct: purchased Zedira T002
T1 sequence (P21980 1-687): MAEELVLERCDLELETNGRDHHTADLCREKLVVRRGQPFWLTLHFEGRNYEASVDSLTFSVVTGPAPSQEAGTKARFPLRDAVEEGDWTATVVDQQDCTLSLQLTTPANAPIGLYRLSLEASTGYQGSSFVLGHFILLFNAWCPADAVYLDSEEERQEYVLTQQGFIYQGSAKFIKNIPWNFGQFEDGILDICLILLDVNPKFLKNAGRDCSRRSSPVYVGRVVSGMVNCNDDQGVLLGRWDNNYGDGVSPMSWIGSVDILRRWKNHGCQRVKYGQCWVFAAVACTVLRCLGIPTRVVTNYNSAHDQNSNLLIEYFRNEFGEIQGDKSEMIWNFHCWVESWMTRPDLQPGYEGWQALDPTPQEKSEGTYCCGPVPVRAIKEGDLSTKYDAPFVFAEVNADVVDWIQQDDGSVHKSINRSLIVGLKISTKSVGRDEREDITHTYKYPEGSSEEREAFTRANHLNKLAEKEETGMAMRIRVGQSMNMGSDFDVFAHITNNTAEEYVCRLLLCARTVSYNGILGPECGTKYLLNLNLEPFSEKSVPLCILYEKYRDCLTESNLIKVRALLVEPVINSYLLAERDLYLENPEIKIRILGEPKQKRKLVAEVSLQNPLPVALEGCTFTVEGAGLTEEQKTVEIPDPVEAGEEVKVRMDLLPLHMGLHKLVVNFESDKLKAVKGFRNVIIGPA
Nature of the assay: Inactivation of human tissue transglutaminase, fluorescence assay with Abz-APE(CAD-DNP)QEA-OH. The assay is classed as biochemical. Particulars: substrate Abz-APE(CAD-DNP)QEA-OH, 37° C., pH=7.5. The method, then: General Method for Inactivation of Human Tissue Transglutaminase
250 μg lyophilized His tagged recombinant human tissue transglutaminase (His6-rh-TG2, Zedira product T002) are reconstituted by adding 150 μl water (resulting buffer 50 mM NaH2PO4, 150 mM NaCl, pH=8.0).
A 10 mM inhibitor stock solution in DMSO is prepared and is diluted with buffer (50 mM Tris-HCl, 10 mM CaCl2, 5 mM DTT, pH=7.5) each to the twentyfold of the concentration desired in the preparation (but at least 1/50 dilution resulting in a 2% DMSO concentration).
900 μl of an assay-solution consisting of 55.56 mM Tris, 11.11 mM CaCl2, 0.11% PEG8000, 5.56 mM DTT, 5.56 mM glycine methyl ester and 50 μM Abz-APE(CAD-DNP)QEA-OH, (Zedira product A102; patent No.: EP 1781807B1), pH=7.5 are added to a cuvette and heated in a measuring cell of a spectrophotometer to 37° C. 50 μl of the particular inhibitor solution are added to this solution (resulting in a concentration of less than 0.2% DMSO in the mixture).
7 μl of the transglutaminase solution reconstituted above are diluted with 51 μl buffer (50 mM Tris, 100 mM NaCl, 5 mM DTT, pH=7.5). 50 μl of this enzyme solution (10 μg His6-rhTG2) are added to the assay-solution containing the particular inhibitor concentration. It is incubated 5 min at 37° C. before measuring starts (λexc=313 nm and λem=418 nm, t=15 to 30 min).
The evaluation of the resulting enzyme activity is done using the slope of the straight line obtained by the increase in fluorescence.
To determine the non-inhibited enzyme activity, DMSO instead of inhibitor stock solution is used. IC50 values are determined by plotting the resulting enzyme activity against the logarithm of the inhibitor concentration. IC50 is defined as the concentration of inhibitor resulting in 50% of enzyme activity.
As a reminder, the IC50 is the midpoint of a concentration-inhibition curve. With `CCOC(=O)/C=C/CC[C@H](NC(C)=O)C(=O)Nc1cccn(CC(=O)NCCN(CC)CC)c1=O` [A25, (S,E)-Ethyl 6-acetamido-7-(1-(2-(2-(diethylamino)ethylamino)-2-oxoethyl)-2-oxo-1,2-dihydropyridin-3-ylamino)-7-oxohept-2-enoate], the IC50 came out at 4800 nM.

For `CCOC(=O)/C=C/CC[C@H](NC(=O)CCC(=O)O)C(=O)Nc1cccn(CC(=O)NCCN(CC)CC)c1=O` [A26, (S,E)-4-(1-(1-(2-(2-(Diethylamino)ethylamino)-2-oxoethyl)-2-oxo-1,2-dihydropyridin-3-ylamino)-7-ethoxy-1,7-dioxohept-5-en-2-ylamino)-4-oxobutanoic acid], the IC50 was 5400 nM.

As to `CCOC(=O)/C=C/CC[C@H](NC(C)=O)C(=O)Nc1cccn(CC(=O)NCCN(C)C)c1=O` [A27, (S,E)-Ethyl 6-acetamido-7-(1-(2-(2-(dimethylamino)ethylamino)-2-oxoethyl)-2-oxo-1,2-dihydropyridin-3-ylamino)-7-oxohept-2-enoate], the IC50 turned out to be 5200 nM.

For `CCOC(=O)/C=C/CC[C@H](NC(C)=O)C(=O)Nc1cccn(CC(=O)N[C@@H](CC(C)C)C(=O)OC)c1=O` [A31, (S,E)-Ethyl 6-acetamido-7-(1-(2-((S)-1-methoxy-4-methyl-1-oxopentan-2-ylamino)-2-oxoethyl)-2-oxo-1,2-dihydropyridin-3-ylamino)-7-oxohept-2-enoate], the concentration for half-maximal inhibition (IC50) worked out at 124 nM.

As to `CCOC(=O)/C=C/CC[C@H](NC(=O)CCC(=O)O)C(=O)Nc1cccn(CC(=O)N[C@@H](CC(C)C)C(=O)OC)c1=O` [A32, 4-((S,E)-7-Ethoxy-1-(1-(2-((S)-1-methoxy-4-methyl-1-oxopentan-2-ylamino)-2-oxoethyl)-2-oxo-1,2-dihydropyridin-3-ylamino)-1,7-dioxohept-5-en-2-ylamino)-4-oxobutanoic acid], the IC50 stood at 194 nM.

Consider `CCOC(=O)/C=C/CC[C@H](NC(C)=O)C(=O)Nc1cccn(CC(=O)N[C@H](CC(C)C)C(=O)OC)c1=O` [A33, (S,E)-Ethyl 6-acetamido-7-(1-(2-((R)-1-methoxy-4-methyl-1-oxopentan-2-ylamino)-2-oxoethyl)-2-oxo-1,2-dihydropyridin-3-ylamino)-7-oxohept-2-enoate], for which the IC50 was determined as 493 nM.

For the compound `CCOC(=O)/C=C/CC[C@H](NC(=O)CCC(=O)O)C(=O)Nc1cccn(CC(=O)N[C@H](CC(C)C)C(=O)OC)c1=O` [A34, 4-((S,E)-7-Ethoxy-1-(1-(2-((R)-1-methoxy-4-methyl-1-oxopentan-2-ylamino)-2-oxoethyl)-2-oxo-1,2-dihydropyridin-3-ylamino)-1,7-dioxohept-5-en-2-ylamino)-4-oxobutanoic acid], the IC50 was found to be 640 nM.

Regarding `CCOC(=O)/C=C/CC[C@H](NC(=O)CCC(=O)O)C(=O)Nc1cccn(CC(=O)N[C@H](C(=O)OC)[C@H](C)CC)c1=O` [A36, 4-((S,E)-7-Ethoxy-1-(1-(2-((2S,3R)-1-methoxy-3-methyl-1-oxopentan-2-ylamino)-2-oxoethyl)-2-oxo-1,2-dihydropyridin-3-ylamino)-1,7-dioxohept-5-en-2-ylamino)-4-oxobutanoic acid], the IC50 was 88 nM.

Consider `CCOC(=O)/C=C/CC[C@H](NC(=O)CCC(=O)O)C(=O)Nc1cccn(CC(=O)NCc2ccc(C(F)(F)F)cc2)c1=O` [A37, (S,E)-4-(7-Ethoxy-1,7-dioxo-1-(2-oxo-1-(2-oxo-2-(4-(trifluoromethyl)benzylamino)ethyl)-1,2-dihydropyridin-3-ylamino)hept-5-en-2-ylamino)-4-oxobutanoic acid], for which the IC50 came out at 340 nM.

Consider `CCOC(=O)/C=C/CC[C@H](NC(=O)CCC(=O)O)C(=O)Nc1cccn(CC(=O)NCCC(C)(C)C)c1=O` [A38, (S,E)-4-(1-(1-(2-(3,3-Dimethylbutylamino)-2-oxoethyl)-2-oxo-1,2-dihydropyridin-3-ylamino)-7-ethoxy-1,7-dioxohept-5-en-2-ylamino)-4-oxobutanoic acid], for which the IC50 was determined as 175 nM.
